Where two headings read alike, the source gives them in different places.
How the values were obtained:
[1] = Stability against deposition of precipitates (visual judgement of the stored processing composition); format: physicochemical; design: key: the level of conspicuous precipitation was xx; the level of apparent precipitation was x; the level of slight precipitation was Δ; the level of no precipitation but clouding was ◯; the level of complete transparency with neither clouding nor precipitation was ◯◯
[2] = Solubility at the preparation of the additive composition for a fixing solution; format: physicochemical; conditions: Example 5 additive composition, dissolution aid none
[3] = Example 1 concentrated color developing composition, 15 mmol added, glass bottle, 4 weeks at room temperature
[4] = Example 1 concentrated color developing composition, 15 mmol added, glass bottle, 4 weeks at −5° C.
[5] = Example 2 color developing composition with increased developing agent, 25 mmol added, 4 weeks at room temperature
[6] = Example 2 color developing composition with increased developing agent, 25 mmol added, 4 weeks at −5° C.
[7] = Example 3 fixing composition, 5 mmol added, 4 weeks at room temperature
[8] = Example 3 fixing composition, 5 mmol added, 4 weeks at −5° C.
[9] = Example 4 color developing composition for color negative film, 15 mmol added, 4 weeks at room temperature
[10] = Example 4 color developing composition for color negative film, 15 mmol added, 4 weeks at −5° C.
[11] = Example 5 additive composition, compound 70 mmol, dissolution aid none, −5° C.

Evaluation of Deposition (room temperature) [1, 3]	Evaluation of Deposition (−5° C.) [1, 4]	Evaluation of Deposition (room temperature) [1, 5]	Evaluation of Deposition (−5° C.) [1, 6]	Evaluation of Deposition (room temperature) [1, 7]	Evaluation of Deposition (−5° C.) [1, 8]	Evaluation of Deposition (room temperature) [1, 9]	Evaluation of Deposition (−5° C.) [1, 10]	Evaluation of Deposition (−5° C.) [1, 11]	Solubility at the Preparation of Solution ([2]; compound 70 mmol)	Evaluation of Deposition (−5° C.) ([1]; Example 5 additive composition, compound 140 mmol, dissolution aid none, −5° C.)	Solubility at the Preparation of Solution ([2]; compound 140 mmol)	Compound	Evaluation of Deposition (room temperature) [1]	Evaluation of Deposition (−5° C.) [1]
◯◯	◯◯	◯◯	◯◯	◯◯	◯◯	◯◯	◯◯	◯◯	Completely	–	–	O=S(=O)([O-])CCNc1nc(NCC(O)CO)nc(Nc2ccc(Nc3nc(NCCS(=O)(=O)[O-])nc(NCC(O)CO)n3)cc2)n1.[Na+].[Na+] (centres unmarked) [Compound A-2]	–	–
–	–	–	–	–	–	–	–	–	–	–	–	COc1cc(Nc2nc(NCCS(=O)(=O)[O-])nc(NCC(O)CO)n2)c(OC)cc1Nc1nc(NCCS(=O)(=O)[O-])nc(NCC(O)CO)n1.[Na+].[Na+] (centres unmarked) [Compound A-7]	◯◯	◯
◯◯	◯◯	◯◯	◯◯	◯◯	◯◯	◯◯	◯◯	◯◯	Completely	◯◯	Completely	O=S(=O)([O-])CCNc1nc(NCC(O)CO)nc(Nc2cccc(Nc3nc(NCCS(=O)(=O)[O-])nc(NCC(O)CO)n3)c2)n1.[Na+].[Na+] (centres unmarked) [Compound A-3]	–	–
–	–	–	–	–	–	–	–	–	–	–	–	CC(CO)Nc1nc(NCC(O)CO)nc(Nc2cc(Nc3nc(NCC(O)CO)nc(NC(C)CO)n3)cc(S(=O)(=O)[O-])c2)n1.[Na+] (centres unmarked) [Compound A-23]	◯◯	◯◯ and ◯

— patent publication US6753425B2, “Photographic processing composition containing bistriazinyl arylenediamine derivative” (Fuji Photo Film Co., Ltd., priority 2000, dated 2004)
